Data on two compounds can be found in patent US12629371B2, “Compositions and methods for inhibiting kinases” (Inhibikase Therapeutics, Inc., priority 2016, dated 2026).

SMILES strings stand for the structures. Like-named read-outs stand apart in the source and are kept apart here.

What all share (assay type): biochemical
Assay [1] deals with FYN (Homo sapiens, UniProt P06241). Nature of the assay: Inhibition profile at 500 nM: FYN. The conditions noted are these: 500 nM test compound, read-out: Percent inhibition FYN. The protocol: (§1) Then enzyme substrate is added as 10 μl of 2.5×FAM-labeled peptide+ATP solution to each well of the 384-well assay plate The reaction is allowed to proceed at 28° C. and quenched with the addition of 25 μl of stop buffer. The release of fluorescent FAM is quantitated as Percent inhibition=(max−conversion)/(max−min)*100.sp; “max” stands for DMSO control; “min” stands for low control. Convert conversion values to inhibition values. Percent inhibition=(max−conversion)/(max−min)*100. “max” stands for DMSO control; “min” stands for low control.
FYN, sequence (P06241 whole entry): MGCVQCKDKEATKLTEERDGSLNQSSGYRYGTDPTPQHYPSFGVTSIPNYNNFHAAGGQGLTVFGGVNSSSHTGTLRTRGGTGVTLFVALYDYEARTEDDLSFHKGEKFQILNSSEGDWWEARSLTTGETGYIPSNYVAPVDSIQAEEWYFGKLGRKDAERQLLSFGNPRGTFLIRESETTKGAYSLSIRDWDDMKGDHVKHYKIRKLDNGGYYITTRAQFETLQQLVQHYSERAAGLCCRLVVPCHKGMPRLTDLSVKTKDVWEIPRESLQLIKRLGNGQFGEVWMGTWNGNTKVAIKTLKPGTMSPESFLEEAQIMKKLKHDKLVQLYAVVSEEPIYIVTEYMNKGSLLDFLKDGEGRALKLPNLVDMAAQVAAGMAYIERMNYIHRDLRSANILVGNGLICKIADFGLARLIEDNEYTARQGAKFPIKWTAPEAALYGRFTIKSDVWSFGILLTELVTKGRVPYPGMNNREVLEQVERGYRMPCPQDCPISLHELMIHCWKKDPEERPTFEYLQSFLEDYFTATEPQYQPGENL

The target of assay [2] is PDGFRa (Homo sapiens, UniProt P16234). Kind of assay: Inhibition profile at 500 nM: PDGFRa. The conditions noted are these: 500 nM test compound, read-out: Percent inhibition PDGFRa. The protocol: as §1
The target in assay [3] is FES (Homo sapiens, UniProt P07332). Kind of assay: Inhibition profile at 500 nM: FES. The following applies: 500 nM test compound, read-out: Percent inhibition FES. How it is done:
as §1

Assay [4] addresses ABL (Homo sapiens, UniProt P00519). Kind of assay: Inhibition profile at 500 nM: ABL / Abl1. The following applies: 500 nM test compound; Table 1; read-out: Percent inhibition ABL. The protocol:
as §1

Assay [5] has as its target LCK (Homo sapiens, UniProt P06239). Kind of assay: Inhibition profile at 500 nM: LCK. The following applies: 500 nM test compound, read-out: Percent inhibition LCK. The protocol:
as §1

For assay [6], the target named is FGR (Homo sapiens, UniProt P09769). Kind of assay: Inhibition profile at 500 nM: FGR. The conditions noted are these: 500 nM test compound, read-out: Percent inhibition FGR. How it is done: as §1
FGR, sequence (P09769 whole entry): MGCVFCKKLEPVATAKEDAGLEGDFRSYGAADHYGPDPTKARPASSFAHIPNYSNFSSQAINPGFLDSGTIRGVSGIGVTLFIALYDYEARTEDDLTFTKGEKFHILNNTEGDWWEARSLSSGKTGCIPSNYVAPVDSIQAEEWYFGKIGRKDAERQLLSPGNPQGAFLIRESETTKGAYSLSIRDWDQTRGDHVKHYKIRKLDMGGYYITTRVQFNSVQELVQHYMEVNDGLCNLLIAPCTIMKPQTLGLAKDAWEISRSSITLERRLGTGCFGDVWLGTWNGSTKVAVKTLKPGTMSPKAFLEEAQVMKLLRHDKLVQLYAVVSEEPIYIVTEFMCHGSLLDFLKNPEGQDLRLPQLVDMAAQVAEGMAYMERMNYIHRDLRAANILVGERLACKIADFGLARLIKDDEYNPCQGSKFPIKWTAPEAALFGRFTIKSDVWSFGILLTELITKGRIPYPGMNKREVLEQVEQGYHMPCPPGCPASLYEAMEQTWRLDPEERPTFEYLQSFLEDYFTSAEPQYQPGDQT
For assay [7], the target named is PDGFRb (Homo sapiens, UniProt P09619). Kind of assay: Inhibition profile at 500 nM: PDGFRb. The following applies: 500 nM test compound, read-out: Percent inhibition PDGFRb. How it is done:
as §1

Assay [8] concerns the target JNK2 (Homo sapiens, UniProt P45984). Kind of assay: Inhibition profile at 500 nM: JNK2. The conditions noted are these: 500 nM test compound, read-out: Percent inhibition JNK2. The protocol: as §1
Assay [9] has as its target ARG/Abl2 (Homo sapiens, UniProt P42684). Nature of the assay: Inhibition profile at 500 nM: ARG/Abl2. The following applies: 500 nM test compound. The protocol:
as §1

Assay [10] has as its target LYNA (Homo sapiens, UniProt P07948). Nature of the assay: Inhibition profile at 500 nM: LYNA. The conditions noted are these: 500 nM test compound, read-out: Percent inhibition LYNA. How it is done: as §1
In assay [11] the target is FLT3 (Homo sapiens, UniProt P36888). Nature of the assay: Inhibition profile at 500 nM: FLT3. The following applies: 500 nM test compound, read-out: Percent inhibition FLT3. The protocol:
as §1

Assay [12] deals with KIT (Homo sapiens, UniProt P10721). Kind of assay: Inhibition profile at 500 nM: KIT. The following applies: 500 nM test compound; Table 1; read-out: Percent inhibition KIT. How it is done:
as §1

Assay [13] has as its target SRC (Homo sapiens, UniProt P12931). Kind of assay: Inhibition profile at 500 nM: SRC. The following applies: 500 nM test compound, read-out: Percent inhibition SRC. How it is done: as §1
Assay [14] deals with JNK1 (Homo sapiens, UniProt P45983). Nature of the assay: Inhibition profile at 500 nM: JNK1. The following applies: 500 nM test compound; Table 2; read-out: Percent inhibition JNK1. How it is done:
as §1

Assay [15] addresses YES (Homo sapiens, UniProt P07947). Kind of assay: Inhibition profile at 500 nM: YES. The following applies: 500 nM test compound; Table 2; read-out: Percent inhibition YES. How it is done:
as §1

For assay [16], the system named is CMT. Nature of the assay: Inhibition profile at 500 nM: CMT. The conditions noted are these: 500 nM test compound; Table 2. The protocol:
as §1

FLT3, sequence (P36888 27-993): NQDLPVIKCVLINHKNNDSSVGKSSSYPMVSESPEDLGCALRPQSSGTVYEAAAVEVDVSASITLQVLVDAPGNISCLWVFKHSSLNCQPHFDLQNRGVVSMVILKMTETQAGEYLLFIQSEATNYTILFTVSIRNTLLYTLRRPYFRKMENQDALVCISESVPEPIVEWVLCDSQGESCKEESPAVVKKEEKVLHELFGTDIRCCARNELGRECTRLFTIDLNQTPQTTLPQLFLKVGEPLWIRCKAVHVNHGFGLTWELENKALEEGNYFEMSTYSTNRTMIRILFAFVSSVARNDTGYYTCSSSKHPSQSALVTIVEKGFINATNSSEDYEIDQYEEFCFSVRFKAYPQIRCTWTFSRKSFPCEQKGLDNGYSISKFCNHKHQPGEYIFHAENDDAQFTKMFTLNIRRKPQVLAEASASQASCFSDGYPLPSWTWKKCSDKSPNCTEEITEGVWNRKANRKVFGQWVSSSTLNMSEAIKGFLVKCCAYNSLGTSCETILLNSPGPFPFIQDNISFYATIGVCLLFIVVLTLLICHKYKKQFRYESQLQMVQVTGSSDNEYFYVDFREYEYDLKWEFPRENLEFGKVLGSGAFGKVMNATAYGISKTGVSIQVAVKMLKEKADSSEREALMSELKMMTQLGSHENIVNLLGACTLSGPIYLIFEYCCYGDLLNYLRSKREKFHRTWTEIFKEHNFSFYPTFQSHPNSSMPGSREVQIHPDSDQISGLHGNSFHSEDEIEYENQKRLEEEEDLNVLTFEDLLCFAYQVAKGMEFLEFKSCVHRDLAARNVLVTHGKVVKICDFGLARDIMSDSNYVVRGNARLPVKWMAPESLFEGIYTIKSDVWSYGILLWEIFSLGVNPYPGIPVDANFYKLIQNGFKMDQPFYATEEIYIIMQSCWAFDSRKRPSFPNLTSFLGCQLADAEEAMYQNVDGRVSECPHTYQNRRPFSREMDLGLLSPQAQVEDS
SRC, sequence (P12931 whole entry): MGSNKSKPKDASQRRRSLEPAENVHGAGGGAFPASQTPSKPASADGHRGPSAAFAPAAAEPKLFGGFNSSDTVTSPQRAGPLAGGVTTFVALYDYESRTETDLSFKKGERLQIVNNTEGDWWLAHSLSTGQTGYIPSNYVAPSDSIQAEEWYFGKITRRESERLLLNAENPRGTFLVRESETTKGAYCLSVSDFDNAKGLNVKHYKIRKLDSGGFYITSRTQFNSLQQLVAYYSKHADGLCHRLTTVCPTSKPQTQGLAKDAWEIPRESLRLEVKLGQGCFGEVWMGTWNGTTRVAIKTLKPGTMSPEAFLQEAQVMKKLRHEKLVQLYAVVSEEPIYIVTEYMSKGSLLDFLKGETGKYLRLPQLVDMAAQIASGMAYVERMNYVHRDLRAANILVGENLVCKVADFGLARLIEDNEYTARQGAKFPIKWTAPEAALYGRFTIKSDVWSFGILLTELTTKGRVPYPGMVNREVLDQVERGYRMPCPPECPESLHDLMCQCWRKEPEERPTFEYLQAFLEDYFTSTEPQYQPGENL
FES, sequence (P07332 whole entry): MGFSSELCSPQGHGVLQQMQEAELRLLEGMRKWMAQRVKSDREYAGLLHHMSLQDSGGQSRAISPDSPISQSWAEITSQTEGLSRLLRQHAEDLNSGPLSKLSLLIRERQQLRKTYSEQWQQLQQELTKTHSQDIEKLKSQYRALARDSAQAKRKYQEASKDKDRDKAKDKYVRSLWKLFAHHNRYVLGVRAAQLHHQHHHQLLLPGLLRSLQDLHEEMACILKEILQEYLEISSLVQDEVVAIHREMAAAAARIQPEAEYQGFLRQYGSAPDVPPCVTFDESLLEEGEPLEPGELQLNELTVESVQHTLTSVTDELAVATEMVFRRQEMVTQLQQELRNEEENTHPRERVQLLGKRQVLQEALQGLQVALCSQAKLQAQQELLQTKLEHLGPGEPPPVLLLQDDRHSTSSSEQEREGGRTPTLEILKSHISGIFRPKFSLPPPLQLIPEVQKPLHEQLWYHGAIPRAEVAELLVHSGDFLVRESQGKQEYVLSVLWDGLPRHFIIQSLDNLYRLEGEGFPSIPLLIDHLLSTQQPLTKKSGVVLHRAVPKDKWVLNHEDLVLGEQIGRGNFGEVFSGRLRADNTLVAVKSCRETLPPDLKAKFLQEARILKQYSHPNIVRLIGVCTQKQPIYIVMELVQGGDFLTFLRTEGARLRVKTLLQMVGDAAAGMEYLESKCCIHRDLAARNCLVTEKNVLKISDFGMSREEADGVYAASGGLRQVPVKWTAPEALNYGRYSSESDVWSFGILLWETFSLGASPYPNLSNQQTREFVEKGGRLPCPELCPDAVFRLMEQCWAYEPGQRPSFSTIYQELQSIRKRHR
JNK2, sequence (P45984 whole entry): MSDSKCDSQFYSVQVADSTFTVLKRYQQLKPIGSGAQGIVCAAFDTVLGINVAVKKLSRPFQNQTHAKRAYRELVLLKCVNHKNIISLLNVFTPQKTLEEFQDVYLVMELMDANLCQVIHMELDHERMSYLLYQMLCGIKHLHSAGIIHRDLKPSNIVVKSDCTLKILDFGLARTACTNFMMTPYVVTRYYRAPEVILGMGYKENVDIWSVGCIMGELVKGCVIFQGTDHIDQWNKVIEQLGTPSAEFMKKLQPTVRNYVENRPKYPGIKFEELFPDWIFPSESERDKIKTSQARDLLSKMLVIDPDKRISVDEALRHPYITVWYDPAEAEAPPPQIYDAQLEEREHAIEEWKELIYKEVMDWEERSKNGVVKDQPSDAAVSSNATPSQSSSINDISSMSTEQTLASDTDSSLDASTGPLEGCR
PDGFRb, sequence (P09619 33-1106): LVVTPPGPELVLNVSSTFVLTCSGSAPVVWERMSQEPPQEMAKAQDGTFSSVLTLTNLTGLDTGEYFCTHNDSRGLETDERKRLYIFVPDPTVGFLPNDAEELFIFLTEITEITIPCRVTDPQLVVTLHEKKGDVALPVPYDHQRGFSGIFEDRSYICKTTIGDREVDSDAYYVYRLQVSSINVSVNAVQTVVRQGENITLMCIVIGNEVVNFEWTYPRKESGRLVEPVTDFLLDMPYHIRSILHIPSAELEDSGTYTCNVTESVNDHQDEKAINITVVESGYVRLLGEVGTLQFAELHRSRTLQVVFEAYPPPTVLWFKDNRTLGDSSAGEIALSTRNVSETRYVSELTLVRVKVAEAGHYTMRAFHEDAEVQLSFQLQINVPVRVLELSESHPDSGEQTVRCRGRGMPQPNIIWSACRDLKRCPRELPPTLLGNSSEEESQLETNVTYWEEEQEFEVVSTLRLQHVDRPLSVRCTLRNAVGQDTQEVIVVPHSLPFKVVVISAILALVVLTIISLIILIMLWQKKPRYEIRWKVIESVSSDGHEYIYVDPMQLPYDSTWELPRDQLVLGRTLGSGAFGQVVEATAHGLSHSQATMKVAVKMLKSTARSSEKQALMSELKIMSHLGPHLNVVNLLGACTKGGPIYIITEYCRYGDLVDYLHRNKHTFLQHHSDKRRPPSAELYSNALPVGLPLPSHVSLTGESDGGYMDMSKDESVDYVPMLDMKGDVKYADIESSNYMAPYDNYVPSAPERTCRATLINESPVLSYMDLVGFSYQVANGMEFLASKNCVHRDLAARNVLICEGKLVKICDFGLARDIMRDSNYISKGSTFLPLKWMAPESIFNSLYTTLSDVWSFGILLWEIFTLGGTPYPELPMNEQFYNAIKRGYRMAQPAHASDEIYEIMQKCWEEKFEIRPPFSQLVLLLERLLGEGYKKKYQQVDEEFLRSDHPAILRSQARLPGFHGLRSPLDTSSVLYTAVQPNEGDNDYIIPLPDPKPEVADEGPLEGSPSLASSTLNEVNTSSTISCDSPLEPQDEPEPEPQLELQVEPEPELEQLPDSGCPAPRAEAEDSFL

As to `Cc1ccc(NC(=O)c2ccc(CN3CCN(C)CC3)cc2)cc1Nc1nccc(-c2cncc(-c3ccn[nH]3)c2)n1` [Compound 107], the inhibition at 0.5 µM came to 69% in assay [1] (Table 1); 59% in assay [2] (Table 1); 28% in [3] (Table 1); 91% in assay [4]; 95% in assay [5] (Table 1); 82% in assay [6] (Table 1). The inhibition at 0.5 µM worked out at 101% in assay [7] (Table 1); 1.7% in [8] (Table 1); 87% in assay [9] (Table 1, read-out: Percent inhibition ARG/Abl2); 93% in [10] (Table 1); 51% in assay [11] (Table 1); 99% in assay [12]. In addition, the inhibition at 0.5 µM in assay [13] (Table 1) stood at 28%.

Consider `Cc1ccc(NC(=O)c2ccc(CN3CCN(C)CC3)cc2)cc1Nc1nccc(-c2cncc(-c3cnn(C)c3)c2)n1` [Compound 8300], for which the inhibition at 0.5 µM in assay [1] (Table 2) stood at 90%; in assay [14], 35%; in assay [2] (Table 2), 99%; in assay [3] (Table 2), 19%; in [5] (Table 2), 97%; in [6] (Table 2) it was 81%. Besides, the inhibition at 0.5 µM in assay [7] (Table 2) was 98%; in [15], 63%; in [8] (Table 2), 30%; in assay [9] (Table 2, read-out: Percent inhibition Abl2) it was 89%; in assay [10] (Table 2), 108%; in assay [11] (Table 2), 61%. For the same compound, the inhibition at 0.5 µM in assay [13] (Table 2) was found to be 45%. The “Percent inhibition CMT” value in [16] worked out at 88%.
